Test results reported in the supplement of paper PMC10307832.

Legend:
Test in all cases: relative viability (nuclei count vs DMSO), 5 days (fraction); higher = more cells survive
Bemcentinib + Navitoclax = compound: Nc1nc(Nc2ccc3c(c2)CC[C@@H](N2CCCC2)CC3)nn1-c1cc2c(nn1)-c1ccccc1CCC2 [Bemcentinib] + CC1(C)CCC(c2ccc(Cl)cc2)=C(CN2CCN(c3ccc(C(=O)NS(=O)(=O)c4ccc(N[C@H](CCN5CCOCC5)CSc5ccccc5)c(S(=O)(=O)C(F)(F)F)c4)cc3)CC2)C1 [Navitoclax] (partner 0.5 µM)
In short: (§1)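 Five library-drug doses in √10 steps were combined with a fixed anchor-drug dose, or a single drug was given alone, by pin tool to lung cancer cell lines in 1536-well plates the day after seeding. Nuclei were stained and counted after 5 days. Relative viability is the nuclei count in treated wells over that in vehicle wells, taken as the median of duplicate plates.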

Axitinib + Bortezomib = compound: CNC(=O)c1ccccc1Sc1ccc2c(/C=C/c3ccccn3)n[nH]c2c1 [Axitinib] + CC(C)C[C@H](NC(=O)[C@H](Cc1ccccc1)NC(=O)c1cnccn1)B(O)O [Bortezomib] (partner 0.002 µM)
In short: as §1

Axitinib + Tozasertib = compound: CNC(=O)c1ccccc1Sc1ccc2c(/C=C/c3ccccn3)n[nH]c2c1 [Axitinib] + Cc1cc(Nc2cc(N3CCN(C)CC3)nc(Sc3ccc(NC(=O)C4CC4)cc3)n2)n[nH]1 [Tozasertib] (partner 0.1 µM)
In short: as §1

Bemcentinib + Pemetrexed = compound: Nc1nc(Nc2ccc3c(c2)CC[C@@H](N2CCCC2)CC3)nn1-c1cc2c(nn1)-c1ccccc1CCC2 [Bemcentinib] + Nc1nc2[nH]cc(CCc3ccc(C(=O)N[C@@H](CCC(=O)O)C(=O)O)cc3)c2c(=O)[nH]1 [Pemetrexed] (partner 0.2 µM)
In short: as §1

| Cell Line | relative viability (Bemcentinib + Navitoclax; first compound 0.1265 µM) | relative viability (Bemcentinib + Navitoclax; first compound 0.4 µM) | relative viability (Bemcentinib + Navitoclax; first compound 1.265 µM) | relative viability (Bemcentinib + Navitoclax; first compound 4 µM) | relative viability (Axitinib + Bortezomib; first compound 0.005 µM) | relative viability (Axitinib + Bortezomib; first compound 0.01581 µM) | relative viability (Axitinib + Bortezomib; first compound 0.05 µM) | relative viability (Axitinib + Bortezomib; first compound 0.1581 µM) | relative viability (Axitinib + Bortezomib; first compound 0.5 µM) | relative viability (Axitinib + Tozasertib; first compound 0.005 µM) | relative viability (Axitinib + Tozasertib; first compound 0.01581 µM) | relative viability (Axitinib + Tozasertib; first compound 0.05 µM) | relative viability (Axitinib + Tozasertib; first compound 0.1581 µM) | relative viability (Axitinib + Tozasertib; first compound 0.5 µM) | relative viability (Bemcentinib + Pemetrexed; first compound 0.04 µM) | relative viability (Bemcentinib + Pemetrexed; first compound 0.1265 µM) | relative viability (Bemcentinib + Pemetrexed; first compound 0.4 µM) | relative viability (Bemcentinib + Pemetrexed; first compound 1.265 µM) | relative viability (Bemcentinib + Pemetrexed; first compound 4 µM) | relative viability (Bemcentinib + Navitoclax; first compound 0.04 µM) |
| --- | --- | --- | --- | --- | --- | --- | --- | --- | --- | --- | --- | --- | --- | --- | --- | --- | --- | --- | --- | --- |
| A-427 | 0.946 | 0.826 | 0.909 | 1.07 | 1.07 | 1.04 | 0.988 | 1.06 | 1.13 | 0.206 | 0.193 | 0.228 | 0.266 | 0.22 | 0.966 | 1.02 | 1.08 | 0.928 | 0.936 | – |
| NCI-H2009 | 1.16 | 1.22 | 1.14 | 1.21 | 1.1 | 1.11 | 1.04 | 1.04 | 1.16 | 0.76 | 0.815 | 0.708 | 0.786 | 1.08 | 1.03 | 1.07 | 1.12 | 1.07 | 1.01 | 1.12 |
| UMC-11 | 0.327 | 0.34 | 0.317 | 0.307 | 0.977 | 0.722 | 0.65 | 0.637 | 0.589 | 0.211 | 0.195 | 0.2 | 0.202 | 0.206 | 0.839 | 0.881 | 0.969 | 0.808 | 0.728 | 0.274 |
| NCI-H596 | 0.994 | 1.11 | 1.04 | 1.14 | 0.859 | 0.887 | 1.08 | 1.11 | 0.995 | 1.05 | 0.938 | 0.877 | 0.893 | 0.935 | 0.477 | 0.53 | 0.55 | 0.478 | 0.474 | 0.955 |
| LOU-NH91 | 0.728 | 0.625 | 0.674 | 0.722 | 0.517 | 0.537 | 0.43 | 0.475 | 0.57 | 0.682 | 0.54 | 0.746 | 0.694 | 0.827 | 0.408 | 0.369 | 0.4 | 0.45 | 0.376 | 0.639 |
| HOP-62 | 0.97 | 1.16 | 0.995 | 1.13 | 1.02 | 0.776 | 0.668 | 0.891 | 1.21 | 0.38 | 0.414 | 0.343 | 0.44 | 0.577 | 0.348 | 0.357 | 0.385 | 0.37 | 0.359 | 1.04 |
| NCI-H1993 | 0.911 | 1.02 | 0.994 | 1.08 | 1.21 | 1.3 | 1.14 | 1.18 | 0.913 | 0.617 | 0.59 | 0.592 | 0.607 | 0.641 | 0.566 | 0.59 | 0.623 | 0.584 | 0.62 | 0.897 |
